Entries after “also recorded” stand apart in the source; their conditions may differ.
Tests used:
[1] = test system: rat brain bearing U251, RG2 or U87 tumors; assay: In vivo ^23Na-MRSI peak separation in tumor-bearing rat brain
Source text: Before TmDOTP^5− delivery, there was a single ^23Na peak at 0 ppm corresponding to Na^+T, observed ubiquitously both inside and outside the tumor. Upon TmDOTP^5− delivery, compartmental ^23Na peak separation was achieved. Within the tumor, the compromised BBB permitted greater TmDOTP^5− extravasation and accumulation in the interstitial space, explicitly yielding three separate ^23Na peaks emerging from the original single ^23Na resonance. […] In the tumor, the most-shifted peak was Na^+b because the blood compartment had the largest TmDOTP^5−, which was corroborated by removing blood samples from the animal and observing the same chemical shift in vitro (FIG. 2D). In the tumor, the intermediate peak in the middle corresponded to the interstitial Na^+e resonance (FIG. 2B). The splitting was also evident outside of the tumor (i.e., in healthy tissue) where TmDOTP^5− extravasated to a much lesser extent compared to tumor tissue (FIG. 2C). The Na^+b peak was still most-shifted, whereas the Na^+i and Na^+e peaks were less discernible. When there was significant overlap between adjacent peaks, instead of peak integrals the peak amplitudes were used to discriminate signals. The shifted bulk Na^+e peak in healthy tissue confirmed that whatever degree of TmDOTP^5− extravasation occurred was sufficient to affect the interstitial ^23Na signals, albeit less pronounced than tumoral Na^+e. The unshifted Na^+i resonance was still at 0 ppm, but partially eclipsed by the bulk Na^+e peak. These same patterns inside/outside the tumor were observed throughout the brain.
The in vivo protocol was approved by the Institutional Animal Care & Use Committee of Yale University, and all procedures were performed in accordance with these enforced guidelines and regulations, and in compliance with the ARRIVE guidelines. Rats (athymic/nude and Fischer 344) were purchased through Yale University vendors. U251, U87 and RG2 GBM cell lines were purchased from American Type Culture Collections (Manassas, VA, USA). The U251, U87, and RG2 cells were cultured and grown in a 5% CO2 incubator at 37° C. in either low-glucose (U251 cells) or high-glucose (U87 and RG2 cells) Dulbecco's Modified Eagle's Medium (DMEM) (Thermo Fisher Scientific, Waltham, MA, USA) with 10% fetal bovine serum (FBS) and 1% penicillin-streptomycin. Cells for tumor inoculation were harvested upon reaching at least 80% confluence and were prepared in FBS-free DMEM. Athymic/nude rats were injected intracranially with 2-5×10^6 tumor cells either from the U251 (n=6) or the U87 (n=8) cell line (5-μL aliquot) while placed in a stereotactic holder on a heating pad. Fischer 344 rats were injected with 1.25×10^3 RG2 cells (n=8). During the procedure, animals were anesthetized via isoflurane (Isothesia) inhalation (3-4%), purchased from Covetrus (Portland, ME, USA). Dissection was performed to the cranium, and a hole was drilled into the skull to allow for stereotactic needle insertion. Injections were performed using a 10-μL Hamilton syringe with a 26G needle into the right striatum for majority of the experiments, 3 mm to the right of the bregma and 3 mm below the dura. The cells were injected steadily at 1 μL/min over 5 min and the needle was left in place for an additional 5 min post-injection. The syringe was then gradually removed to preclude any backflow of cells. The hole in the skull was sealed with bone wax, and the incision site was sutured after removal of the syringe. Animals were given bupivacaine (2 mg/kg at incision site) and carprofen (5 mg/kg, subcutaneously) during the tumor inoculation to relieve pain. Carprofen was subsequently given once per day for two days post-inoculation.
Rats were weighed daily and kept on a standard diet of rat chow and water. Tumor growth was monitored every 3-4 days using ^1H-MRI under isoflurane anesthesia. When the tumor had reached a minimum mean diameter of 3 mm at 20-24 days post-injection, each animal was imaged using ^1H-MRI and ^23Na-MRSI. […]

U87-bearing rat brain = assay: In vivo ^23Na-MRSI line broadening in glioma models; details: glioma models, after agent infusion
Source text: FIGS. 10C-10F illustrates images according to certain embodiments of the disclosure. […] However, the ^23Na linewidth analysis by TmDOTP^5− is confounded by its high ^23Na shiftability. This peak separation in vivo overestimates the full-width at half-maximum (FWHM) calculations and exaggerates the measured ^23Na linewidths.
Slice 1 is most superficial, and slice 3 is the deepest. The tumor outline is depicted in white in all columns.
This establishes GdDOTP^5−-induced ^23Na linewidth broadening as a potential surrogate marker for the altered Na^+ biodistribution within tumors. Thus, in brain tumor models, TmDOTP^5− with ^23Na-NMR can separate Na^+ in intracellular, blood, and interstitial pools, while GdDOTP^5− can distinguish Na^+ within intracellular and extracellular (i.e., blood and interstitial) pools.
Because the majority of the present studies looked at ^23Na chemical shift, the line broadening capabilities of these paramagnetic agents were also interrogated. […] This is due to the high magnetic moment of Gd^3+ which contributes to some degree of anisotropy to the paramagnetic susceptibility. […] Crucially, this family of paramagnetic agents has allowed to insightful probing of the tumor microenvironment and drawing of significant conclusions about tumor aggressiveness based on spectroscopic analysis.

[2] = Comparison of ^23Na shiftability and broadening potential of DOTP agents; format: physicochemical
[3] = intravenous ~1 μmol/g, all tumors
[4] = rats bearing RG2 and U87 tumors, tumor voxels

## O=P([O-])([O-])CN1CCN(CP(=O)([O-])[O-])CCN(CP(=O)([O-])[O-])CCN(CP(=O)([O-])[O-])CC1.[Na+].[Na+].[Na+].[Na+].[Na+].[Tm+3] [TmDOTP^5−, sodium thulium (III) 1,4,7,10-tetraazacyclododecane-1,4,7,10-tetrakis(methylenephosphonate)]
[1]; after TmDOTP^5−
  observed ^23Na linewidths in vivo: ~0.4 ppm
[1]; blood samples from the U251 tumor-bearing rat
  ^23Na blood peak shift, in vitro analysis of blood samples: around 2 ppm
[1]; from range of shifts observed and shiftability 2.77 ppm/mM
  TmDOTP^5− concentration in the tumor vasculature: no more than 0.7 mM
[1]; intravenous ~1 μmol/g
  separation of blood and interstitial ^23Na peaks: ~1.5 ppm
[1]; [3]
  ^23Na shift in blood: ~2 ppm
  ^23Na shifts in tumor tissue: 0.5-1 ppm
[1]; rat bearing U251 tumor, after TmDOTP^5− delivery
  ^23Na shift of blood sodium (Na^+b) peak: around 2 ppm
[1]; rat bearing U251 tumor, ~1 μmol/g BW
  ^23Na shift of intracellular sodium (Na^+i) peak: 0 ppm
[1]; rats bearing RG2 and U87 tumors
  Na^+e shift in the tumor: 0.5-1 ppm
[1]; [4]
  Na^+b shift: around 2 ppm
  Na^+i shift: 0 ppm
U87-bearing rat brain
  ^23Na line broadening in tumor versus normal tissue: most prominent within the tumor; also recorded: substantial ^23Na line broadening within tumor models compared to normal tissue
[2]
  broadening potential (sensitivity of linewidth to agent concentration), words: high broadening potentials
  shiftability (sensitivity of ^23Na chemical shift to agent concentration), words: high shiftability

— patent US12569170B2, “Paramagnetic sodium NMR macrocyclic-based biosensors, and associated methods” (Yale University, priority 2021, dated 2026)
